{"source": "patent US20150253305A1", "about": "“METHODS OF IDENTIFYING COMPOUNDS FOR TREATING DEPRESSION AND OTHER RELATED DISEASES” (NORTHWESTERN UNIVERSITY, priority 2012, published 2015)", "key": {"[1]": {"system": "Wnt signaling pathway gene expression", "assay": "Wnt pathway-specific qRT-PCR array in mPFC", "format": "in vivo, rat", "description": "Adult (2-3 month-old) male Sprague-Dawley rats (Harlan Laboratories, Indianapolis, Ind.) were housed 3 to a cage and injected (IV) with one of the following—GLYX-13 (3 mg/kg), ketamine (10 mg/kg), or saline vehicle (1 ml/kg). At 1 and 24 hours after injection (N=5 per time point for each treatment group), rats were sacrificed, their brains were quickly dissected, frozen, and then stored at −80° C. The medial prefrontal cortex (mPFC) was dissected from frozen tissue on ice. An equal volume of the homogenized tissue was used to extract and purify RNA for microarray analysis and to make cDNA for qRT-PCR analysis. All procedures were approved by the Northwestern University IACUC committee and performed in accordance with the NIH Guide for the Care and Use of Laboratory Animals.\nReverse transcription of 1.0 μg of DNAsed, total RNA from 4 rats was primed with oligo(dT) and random hexamers. We utilized SuperScriptIII according to manufacturer's specifications (Invitrogen, Carlsbad, Calif.). A 1:10 dilution of cDNA was used as a template for quantitative real-time PCR, and the analysis was performed with Brilliant SYBR Green qRT-PCR Master Mix (Stratagene) on a Mx3000P Real-Time PCR System. ROX reference dye was included in all reactions. […]"}, "[2]": {"system": "Sprague-Dawley rats", "assay": "Porsolt test", "details": "IV"}, "[3]": {"system": "Sprague-Dawley rats", "assay": "Open field locomotor activity (line crosses)", "details": "0.1 μg, 20 min following MPFC infusion"}, "[4]": {"system": "Sprague-Dawley rats", "assay": "Ketamine drug discrimination", "details": "FIG. 5: drug discrimination, place preference, prepulse inhibition, open field"}}, "note": "Peptide text beside a SMILES is read from it."}
{"smiles": "CNC1(c2ccccc2Cl)CCCCC1=O", "note": "(stereo not drawn) [Ketamine, ketamine]", "values": [{"measurement": "number of genes downregulated (Wnt qRT-PCR array)", "setting": "[1]; 1 and 24 hrs following administration, 10 mg/kg IV, mPFC", "result": 1, "unit": "gene"}, {"measurement": "Frizzled 2 (Fzd) gene expression (Wnt qPCR array)", "setting": "[1]; following injection, relative to vehicle control rats", "result": "Significant gene expression changes"}, {"measurement": "anti-depressant effect in the Porsolt test", "setting": "[2]; 10 mg/kg", "result": "produces a long-lasting anti-depressant effect"}, {"measurement": "rapid antidepressant-like effects in the Porsolt test", "setting": "[2]; rat", "result": "produce rapid antidepressant-like effects"}, {"measurement": "locomotor activity (line crosses in the open field) following MPFC infusion", "setting": "[3]", "result": "increased locomotor activity"}]}
{"smiles": "C[C@@H](O)[C@H](N)C(=O)N1CCC[C@H]1C(=O)N1CCC[C@H]1C(=O)N[C@H](C(N)=O)[C@@H](C)O", "note": "[GLYX-13, L-threonyl-L-prolyl-L-prolyl-L-threonine amide] (H-TPPT-NH2)", "values": [{"measurement": "ketamine-like addictive sensory motor gating, or sedative side effects", "setting": "[4]", "result": "does not show ketamine-like addictive sensory motor gating, or sedative side effects"}]}
